Earlier results, collected in patent US9925167B2, “Agents for the control of parasites on animals” (Hansen-AB GmbH, priority 2011, dated 2018).

How the values were obtained:
paresthesias = details: humans
hepatotoxic damage = details: orally administered; Aldana et al. 2001
[1] = test system: fenvalerate-induced skin sensitizations; details: guinea pigs, Malley et al. 1985

Compound	Effect on paresthesias triggered by cyano-pyrethroid active substances such as fenvalerate (paresthesias; Flannigan et al. 1985)	Effect of topical application in paresthesias after pyrethroid-induced damage (paresthesias; topical, Bradberry et al. 2005)	Effect on hepatotoxic damage after i.p. application of cypermethrin (hepatotoxic damage)	Effect of dermal pre-treatment on fenvalerate-induced skin sensitizations [1]
CC(=O)Oc1c(C)c(C)c2c(c1C)CC[C@@](C)(CCC[C@H](C)CCC[C@H](C)CCCC(C)C)O2 [vitamin E acetate, Alpha-tocopheryl acetate]	positive effects	positive effect	positive effects	
vitamin E				reduction
